Measured values: patent US10259818B2, “Bicyclic azaheterocyclobenzylamines as PI3K inhibitors” (Incyte Corporation, priority 2012, dated 2019)

Each molecule was assayed on SUDHL-6 cell line (diffuse large B cell lymphoma) (assay: SUDHL-6 cell proliferation assay (Example B3)). Conditions: Homo sapiens, SU-DHL-6, 72 h, SUDHL-6 cells, 3 days, Cell Titer-GLO.
Format: cell-based
Protocol: Example B3: SUDHL-6 Cell Proliferation Assay
SUDHL-6 cell line (diffuse large B cell lymphoma) was purchased from ATCC (Manassas, Va.) and maintained in the culture medium recommended (RPMI and 10% FBS). To measure the anti-proliferation activity of the compounds through ATP quantitation, the SUDHL-6 cells was plated with the culture medium (5000 cells/well/per 200 μl) into 96-well polystyrene clear black tissue culture plate (Greiner-bio-one through VWR, NJ) in the presence or absence of a concentration range of test compounds. After 3 days, Cell Titer-GLO Luminescent (Promega, Madison, Wis.) cell culture agent was added to each well for 10 minutes at room temperature to stabilize the luminescent signal. This determines the number of viable cells in culture based on quantitation of the ATP present, which signals the presence of metabolically active cells. Luminescence was measured with the TopCount 384 (Packard Bioscience through Perkin Elmer, Boston, Mass.). […] IC50 data for the Examples is presented in Table 4 determined by the assay of Example B3.

| Compound | IC50 [nM] |
| --- | --- |
| CCNC(=O)N1CC(N2Cc3c(C#N)c(Cl)cc(C(C)n4nc(C)c5c(N)ncnc54)c3OC(C)C2)C1 (single isomer, unassigned) [Example 97, 3-[9-[1-(4-amino-3-methyl-1H-pyrazolo[3,4-d]pyrimidin-1-yl)ethyl]-7-chloro-6-cyano-2-methyl-2,3-dihydro-1,4-benzoxazepin-4(5H)-yl]-N-ethylazetidine-1-carboxamide] | ≤ 500 |
| CCOC(=O)N1CC(N2Cc3c(C#N)c(Cl)cc(C(C)n4nc(C)c5c(N)ncnc54)c3OC(C)C2)C1 (single isomer, unassigned) [Example 99, ethyl 3-[9-[1-(4-amino-3-methyl-1H-pyrazolo[3,4-d]pyrimidin-1-yl)ethyl]-7-chloro-6-cyano-2-methyl-2,3-dihydro-1,4-benzoxazepin-4(5H)-yl]azetidine-1-carboxylate] | ≤ 500 |
| Cc1nn(C(C)c2cc(Cl)c(C#N)c3c2OC(C)CN(C2CN(C(=O)NC(C)C)C2)C3)c2ncnc(N)c12 (single isomer, unassigned) [Example 101, 3-[9-[1-(4-amino-3-methyl-1H-pyrazolo[3,4-d]pyrimidin-1-yl)ethyl]-7-chloro-6-cyano-2-methyl-2,3-dihydro-1,4-benzoxazepin-4(5H)-yl]-N-isopropylazetidine-1-carboxamide] | ≤ 500 |
| Cc1nn(C(C)c2cc(Cl)c(C#N)c3c2OC(C)CN(C2CN(S(=O)(=O)N(C)C)C2)C3)c2ncnc(N)c12 (single isomer, unassigned) [Example 105, 3-[9-[1-(4-amino-3-methyl-1H-pyrazolo[3,4-d]pyrimidin-1-yl)ethyl]-7-chloro-6-cyano-2-methyl-2,3-dihydro-1,4-benzoxazepin-4(5H)-yl]-N,N-dimethylazetidine-1-sulfonamide] | ≤ 500 |
| Cc1c(Cl)cc(C(C)n2nc(C)c3c(N)ncnc32)c2c1CN(C1CN(C(=O)OC(C)(C)C)C1)CCO2 (centres unmarked) [Example 3, tert-Butyl 3-[9-[1-(4-amino-3-methyl-1H-pyrazolo[3,4-d]pyrimidin-1-yl)ethyl]-7-chloro-6-methyl-2,3-dihydro-1,4-benzoxazepin-4(5H)-yl]azetidine-1-carboxylate] | ≤ 500 |
| CC(=O)N1CC(N2CCOc3c(C(C)n4nc(C)c5c(N)ncnc54)cc(Cl)c(C)c3C2)C1 (centres unmarked) [Example 4, 1-{1-[4-(1-Acetylazetidin-3-yl)-7-chloro-6-methyl-2,3,4,5-tetrahydro-1,4-benzoxazepin-9-yl]ethyl}-3-methyl-1H-pyrazolo[3,4-d]pyrimidin-4-amine] | ≤ 500 |
| Cc1c(Cl)cc(C(C)n2nc(C)c3c(N)ncnc32)c2c1CN(C1CCC1)CCO2 (centres unmarked) [Example 5, 1-[1-(7-Chloro-4-cyclobutyl-6-methyl-2,3,4,5-tetrahydro-1,4-benzoxazepin-9-yl)ethyl]-3-methyl-1H-pyrazolo[3,4-d]pyrimidin-4-amine bis(trifluoroacetate)] | ≤ 500 |

Further lines, results first:

| IC50 [nM] | Compound |
| --- | --- |
| ≤ 500 | Cc1nn(C(C)c2cc(Cl)c(C#N)c3c2OC(C)CN(C2CN(CCO)C2)C3)c2ncnc(N)c12 (single isomer, unassigned) [Example 104, 9-[1-(4-amino-3-methyl-1H-pyrazolo[3,4-d]pyrimidin-1-yl)ethyl]-7-chloro-4-[1-(2-hydroxyethyl)azetidin-3-yl]-2-methyl-2,3,4,5-tetrahydro-1,4-benzoxazepine-6-carbonitrile] |
| ≤ 500 | Cc1nn(C(C)c2cc(Cl)c(C#N)c3c2OC(C)CN(CC#N)C3)c2ncnc(N)c12 (single isomer, unassigned) [Example 108, 9-[1-(4-amino-3-methyl-1H-pyrazolo[3,4-d]pyrimidin-1-yl)ethyl]-7-chloro-4-(cyanomethyl)-2-methyl-2,3,4,5-tetrahydro-1,4-benzoxazepine-6-carbonitrile] |
| ≤ 500 | Cc1nn(C(C)c2cc(Cl)c(C#N)c3c2OC(C)CN(CC(N)=O)C3)c2ncnc(N)c12 (single isomer, unassigned) [Example 110, 2-[9-[1-(4-amino-3-methyl-1H-pyrazolo[3,4-d]pyrimidin-1-yl)ethyl]-7-chloro-6-cyano-2-methyl-2,3-dihydro-1,4-benzoxazepin-4(5H)-yl]acetamide] |
| ≤ 500 | COCCN1Cc2c(C#N)c(Cl)cc(C(C)n3nc(C)c4c(N)ncnc43)c2OC(C)C1 (single isomer, unassigned) [Example 112, 9-[1-(4-amino-3-methyl-1H-pyrazolo[3,4-d]pyrimidin-1-yl)ethyl]-7-chloro-4-(2-methoxyethyl)-2-methyl-2,3,4,5-tetrahydro-1,4-benzoxazepine-6-carbonitrile] |
| ≤ 500 | CNC(=O)C1CC(N2Cc3c(C#N)c(Cl)cc(C(C)n4nc(C)c5c(N)ncnc54)c3OC(C)C2)C1 (single isomer, unassigned) [Example 114, 3-[9-[1-(4-amino-3-methyl-1H-pyrazolo[3,4-d]pyrimidin-1-yl)ethyl]-7-chloro-6-cyano-2-methyl-2,3-dihydro-1,4-benzoxazepin-4(5H)-yl]-N-methylcyclobutane-carboxamide] |

Same assay, conditions: SUDHL-6 cells, 3 days, Cell Titer-GLO

| IC50 [nM] | Compound |
| --- | --- |
| ≤ 500 | CCNC(=O)N1CC(N2Cc3c(C#N)c(Cl)cc(C(C)n4nc(C)c5c(N)ncnc54)c3OC(C)C2)C1 (single isomer, unassigned) [Example 98, 3-[9-[1-(4-amino-3-methyl-1H-pyrazolo[3,4-d]pyrimidin-1-yl)ethyl]-7-chloro-6-cyano-2-methyl-2,3-dihydro-1,4-benzoxazepin-4(5H)-yl]-N-ethylazetidine-1-carboxamide] |
| ≤ 500 | CCOC(=O)N1CC(N2Cc3c(C#N)c(Cl)cc(C(C)n4nc(C)c5c(N)ncnc54)c3OC(C)C2)C1 (single isomer, unassigned) [Example 100, ethyl 3-[9-[1-(4-amino-3-methyl-1H-pyrazolo[3,4-d]pyrimidin-1-yl)ethyl]-7-chloro-6-cyano-2-methyl-2,3-dihydro-1,4-benzoxazepin-4(5H)-yl]azetidine-1-carboxylate] |
| ≤ 500 | Cc1nn(C(C)c2cc(Cl)c(C#N)c3c2OC(C)CN(C2CN(C(=O)NC(C)C)C2)C3)c2ncnc(N)c12 (single isomer, unassigned) [Example 102, 3-[9-[1-(4-amino-3-methyl-1H-pyrazolo[3,4-d]pyrimidin-1-yl)ethyl]-7-chloro-6-cyano-2-methyl-2,3-dihydro-1,4-benzoxazepin-4(5H)-yl]-N-isopropylazetidine-1-carboxamide] |
| ≤ 500 | Cc1nn(C(C)c2cc(Cl)c(C#N)c3c2OC(C)CN(C2CN(S(=O)(=O)N(C)C)C2)C3)c2ncnc(N)c12 (single isomer, unassigned) [Example 106, 3-[9-[1-(4-amino-3-methyl-1H-pyrazolo[3,4-d]pyrimidin-1-yl)ethyl]-7-chloro-6-cyano-2-methyl-2,3-dihydro-1,4-benzoxazepin-4(5H)-yl]-N,N-dimethylazetidine-1-sulfonamide] |
| ≤ 500 | CNC(=O)C1CC(N2Cc3c(C#N)c(Cl)cc(C(C)n4nc(C)c5c(N)ncnc54)c3OC(C)C2)C1 (single isomer, unassigned) [Example 115, 3-[9-[1-(4-amino-3-methyl-1H-pyrazolo[3,4-d]pyrimidin-1-yl)ethyl]-7-chloro-6-cyano-2-methyl-2,3-dihydro-1,4-benzoxazepin-4(5H)-yl]-N-methylcyclobutane-carboxamide] |
